Experimental data reported in PubChem BioAssay (NCI).
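Results reflect a 48-hour exposure of cells in 96-well plates to compound at five concentrations. GI50 = concentration required for 50% inhibition of growth. TGI: total growth inhibition.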

What was measured:
Assay in all cases: NCI tumour cell line growth inhibition, 48 h
[1] = system: EKVX NSCLC
[2] = system: SNB-19 CNS
[3] = system: SW-620 colon
[4] = system: UACC-257 melanoma
[5] = system: SN12C renal
[6] = system: U251 CNS
[7] = system: HCC-2998 colon
[8] = system: 786-0 renal
[9] = system: HS 578T breast
[10] = system: NCI-H23 lung
[11] = system: LOX IMVI melanoma
[12] = system: UO-31 renal
[13] = system: SF-539 CNS
[14] = system: NCI-H460 lung
[15] = system: SK-OV-3 ovarian
[16] = system: NCI-H226 lung
[17] = system: NCI-H522 lung
[18] = system: IGROV1 ovarian
[19] = system: OVCAR-4 ovarian
[20] = system: SF-268 CNS
[21] = system: HOP-92 NSCLC
[22] = system: HOP-62 NSCLC
[23] = system: RPMI-8226 leukemia
[24] = system: HCT-116 colon
[25] = system: TK-10 renal
[26] = system: KM12 colon
[27] = system: SK-MEL-28 melanoma
[28] = system: CAKI-1 renal
[29] = system: HCT-15 colon
[30] = system: SNB-75 CNS
[31] = system: OVCAR-8 ovarian
[32] = system: HT29 colon
[33] = system: ACHN renal
[34] = system: RXF 393 renal
[35] = system: MCF7 breast
[36] = system: COLO 205 colon
[37] = system: MALME-3M melanoma
[38] = system: SK-MEL-5 melanoma
[39] = system: PC-3 prostate
[40] = system: MDA-MB-435
[41] = system: T-47D breast
[42] = system: NCI/ADR-RES ovarian
[43] = system: BT-549 breast
[44] = system: A498 renal
[45] = system: SF-295 CNS
[46] = system: SK-MEL-2 melanoma
[47] = system: OVCAR-3 ovarian
[48] = system: UACC-62 melanoma
[49] = system: A549 NSCLC
[50] = system: DU-145 prostate
[51] = system: OVCAR-5 ovarian
[52] = system: MDA-MB-231 breast
[53] = system: M14 melanoma

Question: Which results are given for `O=C(Cn1ccnc1[N+](=O)[O-])NCC(F)(F)C(F)(F)F`?
Answer: GI50 [1]: > 100 µM; TGI [1]: > 100 µM; GI50 [2]: > 100 µM; TGI [2]: > 100 µM; GI50 [3]: > 100 µM; TGI [3]: > 100 µM; GI50 [4]: > 100 µM; TGI [4]: > 100 µM; GI50 [5]: > 100 µM; TGI [5]: > 100 µM; GI50 [6]: > 100 µM; TGI [6]: > 100 µM; GI50 [7]: > 100 µM; TGI [7]: > 100 µM; GI50 [8]: > 100 µM; TGI [8]: > 100 µM; GI50 [9]: > 100 µM; TGI [9]: > 100 µM; GI50 [10]: > 100 µM; TGI [10]: > 100 µM; GI50 [11]: > 100 µM; TGI [11]: > 100 µM; GI50 [12]: > 100 µM; TGI [12]: > 100 µM; GI50 [13]: > 100 µM; TGI [13]: > 100 µM; GI50 [14]: > 100 µM; TGI [14]: > 100 µM; GI50 [15]: > 100 µM; TGI [15]: > 100 µM; GI50 [16]: > 100 µM; TGI [16]: > 100 µM; GI50 [17]: > 100 µM; TGI [17]: > 100 µM; GI50 [18]: > 100 µM; TGI [18]: > 100 µM; GI50 [19]: > 100 µM; TGI [19]: > 100 µM; GI50 [20]: > 100 µM; TGI [20]: > 100 µM; GI50 [21]: > 100 µM; TGI [21]: > 100 µM; GI50 [22]: > 100 µM; TGI [22]: > 100 µM; GI50 [23]: > 100 µM; TGI [23]: > 100 µM; GI50 [24]: > 100 µM; TGI [24]: > 100 µM; GI50 [25]: > 100 µM; TGI [25]: > 100 µM; GI50 [26]: > 100 µM; TGI [26]: > 100 µM; GI50 [27]: > 100 µM; TGI [27]: > 100 µM; GI50 [28]: > 100 µM; TGI [28]: > 100 µM; GI50 [29]: > 100 µM; TGI [29]: > 100 µM; GI50 [30]: > 100 µM; TGI [30]: > 100 µM; GI50 [31]: > 100 µM; TGI [31]: > 100 µM; GI50 [32]: > 100 µM; TGI [32]: > 100 µM; GI50 [33]: > 100 µM; TGI [33]: > 100 µM; GI50 [34]: > 100 µM; TGI [34]: > 100 µM; GI50 [35]: > 100 µM; TGI [35]: > 100 µM; GI50 [36]: > 100 µM; TGI [36]: > 100 µM; GI50 [37]: > 100 µM; TGI [37]: > 100 µM; GI50 [38]: > 100 µM; TGI [38]: > 100 µM; GI50 [39]: > 100 µM; TGI [39]: > 100 µM; GI50 [40]: > 100 µM; TGI [40]: > 100 µM; GI50 [41]: > 100 µM; TGI [41]: > 100 µM; GI50 [42]: > 100 µM; TGI [42]: > 100 µM; GI50 [43]: > 100 µM; TGI [43]: > 100 µM; GI50 [44]: > 100 µM; TGI [44]: > 100 µM; GI50 [45]: > 100 µM; TGI [45]: > 100 µM; GI50 [46]: > 100 µM; TGI [46]: > 100 µM; GI50 [47]: > 100 µM; TGI [47]: > 100 µM; GI50 [48]: > 100 µM; TGI [48]: > 100 µM; GI50 [49]: > 100 µM; TGI [49]: > 100 µM; GI50 [50]: > 100 µM; TGI [50]: > 100 µM; GI50 [51]: > 100 µM; TGI [51]: > 100 µM; GI50 [52]: > 100 µM; TGI [52]: > 100 µM; GI50 [53]: > 100 µM; TGI [53]: > 100 µM
